Activity calls are given as the source filed them. The rule behind the calls is not given here. Starred links: 1 amine or outer side, 2 acyl side, 3 side chain; linkers in the order of their positions; H or OH if unused. Positions of bridges follow the written chain, without caps; N, C: chain ends. Non-standard residues stand in square brackets, D forms with d. Residues, ends and D or L forms follow the SMILES beside them. Dap = NC[C@H](N)C(=O)O; CH2 = C([*:1])[*:2]

Data set [1] in a line: Stability in human serum assessed as parent compound remaining incubated at 24 hrs by RP-HPLC analysis. Format: ADME, cell-free. The settings on record: human serum, read-out: Stability.
Data set [2] has as its target T1, Neuronal acetylcholine receptor; alpha9/alpha10 (Homo sapiens) (UniProt Q9UGM1+Q9GZZ6). The experiment in a line: Antagonist activity at human alpha9alpha10 nAChR expressed in acetylcholine-induced Xenopus laevis oocytes assessed as inhibition of acetylcholine-induced current at 10 nM at -80 mV holding potential incubated for 5 mins by two electrode voltage-clamp assay relative to control. Format: cell-based. Conditions: Oocyte. A general note: Two-electrode voltage clamp is typically applied to oocytes expressing channels or transporters.

For data set [3], the target named is T1, Neuronal acetylcholine receptor; alpha9/alpha10 (Homo sapiens). The experiment in a line: Antagonist activity at human alpha9alpha10 nAChR expressed in acetylcholine-induced Xenopus laevis oocytes assessed as inhibition of acetylcholine-induced current at 10 nM at -80 mV holding potential incubated for 5 mins by two electrode voltage-clamp assay. Format: cell-based. The settings on record: Oocyte, filed as antagonist.

A word on the inhibition: it is the drop in the measured response relative to a control, in per cent. As for `CC[C@H](C)[C@@H]1NC(=O)[C@H](CC(=O)O)NC(=O)[C@@H]2CCCN2C(=O)[C@H](CC(N)=O)NC(=O)[C@H](CC(N)=O)NC(=O)[C@H](C(C)C)NC(=O)[C@H](CO)NC(=O)[C@@H]2CSSC[C@@H]3NC(=O)CNC(=O)[C@H](CCC(=O)O)NC(=O)CNC(=O)[C@H](CCC(=O)O)NC(=O)CNC(=O)[C@H](CCC(=O)O)NC(=O)CNC(=O)[C@H](CSSC[C@H](NC3=O)C(=O)N[C@@H](CN)C(=O)N[C@@H](Cc3cnc[nH]3)C(=O)N3CCC[C@H]3C(=O)N[C@@H](C)C(=O)N2)NC1=O` (HELM PEPTIDE1{A.C.S.V.N.N.P.D.I.C.G.E.G.E.G.E.G.C.C.[NC[C@H](N[*:1])C(=O)[*:2]].H.P}$PEPTIDE1,PEPTIDE1,2:R3-18:R3|PEPTIDE1,PEPTIDE1,10:R3-19:R3|PEPTIDE1,PEPTIDE1,1:R1-22:R2$$$V2.0), the remaining at 24 h in data set [1] is 57.3%. Further, in data set [2], the inhibition stood at 20%.
In the case of `CC[C@H](C)[C@@H]1NC(=O)[C@H](CC(=O)O)NC(=O)[C@@H]2CCCN2C(=O)[C@H](CC(N)=O)NC(=O)[C@H](CC(N)=O)NC(=O)[C@H](C(C)C)NC(=O)[C@H](CO)NC(=O)[C@@H]2CSSC[C@@H]3NC(=O)CNC(=O)[C@H](CN)NC(=O)CNC(=O)[C@H](CN)NC(=O)CNC(=O)[C@H](CN)NC(=O)CNC(=O)[C@H](CSSC[C@H](NC3=O)C(=O)N[C@@H](CN)C(=O)N[C@@H](Cc3cnc[nH]3)C(=O)N3CCC[C@H]3C(=O)N[C@@H](C)C(=O)N2)NC1=O` (cyclo(ACSVNNPDICG[Dap]G[Dap]G[Dap]GCC[Dap]HP); disulfide 2-18, 10-19), in data set [3], the outcome was Active. In addition, in data set [1], the remaining at 24 h stood at 85.2%.
Regarding `CC[C@H](C)[C@@H]1NC(=O)[C@H](CC(=O)O)NC(=O)[C@@H]2CCCN2C(=O)[C@H](CC(N)=O)NC(=O)[C@H](CC(N)=O)NC(=O)[C@H](C(C)C)NC(=O)[C@H](CO)NC(=O)[C@@H]2CSSC[C@@H]3NC(=O)CNC(=O)[C@@H](N)CNC(=O)CC[C@@H](C(N)=O)NC(=O)[C@H](CSSC[C@H](NC3=O)C(=O)N[C@@H](CN)C(=O)N[C@@H](Cc3cnc[nH]3)C(=O)N3CCC[C@H]3C(=O)N[C@@H](C)C(=O)N2)NC1=O` (HELM PEPTIDE1{[N[C@@H](CN[*:3])C(=O)[*:2]].G.C.C.[NC[C@H](N[*:1])C(=O)[*:2]].H.P.A.C.S.V.N.N.P.D.I.C.E.[am]}$PEPTIDE1,PEPTIDE1,1:R3-18:R3|PEPTIDE1,PEPTIDE1,3:R3-9:R3|PEPTIDE1,PEPTIDE1,4:R3-17:R3$$$V2.0), in data set [1], the remaining at 24 h turned out to be 57.3%. Further, in data set [2], the inhibition was less than 5%.
As for `CC.CC[C@H](C)[C@@H]1NC(=O)[C@H](CC(=O)O)NC(=O)[C@@H]2CCCN2C(=O)[C@H](CC(N)=O)NC(=O)[C@H](CC(N)=O)NC(=O)[C@H](C(C)C)NC(=O)[C@H](CO)NC(=O)[C@@H]2CSSC[C@H](NC(=O)CN)C(=O)N[C@@H](CSCSC[C@@H](C(N)=O)NC1=O)C(=O)N[C@@H](CN)C(=O)N[C@@H](Cc1cnc[nH]1)C(=O)N1CCC[C@H]1C(=O)N[C@@H](C)C(=O)N2` (HELM PEPTIDE1{G.C.C.[NC[C@H](N[*:1])C(=O)[*:2]].H.P.A.C.S.V.N.N.P.D.I.C.[am]}|CHEM1{[C([*:1])[*:2]]}$PEPTIDE1,PEPTIDE1,2:R3-8:R3|PEPTIDE1,CHEM1,3:R3-1:R1|PEPTIDE1,CHEM1,16:R3-1:R2$$$V2.0), the outcome in data set [3] was Active.
`CC[C@H](C)[C@@H]1NC(=O)[C@H](CC(=O)O)NC(=O)[C@@H]2CCCN2C(=O)[C@H](CC(N)=O)NC(=O)[C@H](CC(N)=O)NC(=O)[C@H](C(C)C)NC(=O)[C@H](CO)NC(=O)[C@@H]2CSSC[C@@H]3NC(=O)CNC(=O)[C@@H](N)CCCCNC(=O)CC[C@@H](C(N)=O)NC(=O)[C@H](CSSC[C@H](NC3=O)C(=O)N[C@@H](CN)C(=O)N[C@@H](Cc3cnc[nH]3)C(=O)N3CCC[C@H]3C(=O)N[C@@H](C)C(=O)N2)NC1=O` (HELM PEPTIDE1{K.G.C.C.[NC[C@H](N[*:1])C(=O)[*:2]].H.P.A.C.S.V.N.N.P.D.I.C.E.[am]}$PEPTIDE1,PEPTIDE1,1:R3-18:R3|PEPTIDE1,PEPTIDE1,3:R3-9:R3|PEPTIDE1,PEPTIDE1,4:R3-17:R3$$$V2.0): the remaining at 24 h in data set [1] was 57.3%. For the same molecule, the inhibition in data set [2] is less than 40%.
With `CC[C@H](C)[C@@H]1NC(=O)[C@H](CC(=O)O)NC(=O)[C@@H]2CCCN2C(=O)[C@H](CC(N)=O)NC(=O)[C@H](CC(N)=O)NC(=O)[C@H](C(C)C)NC(=O)[C@H](CO)NC(=O)[C@@H]2CSSC[C@@H]3NC(=O)CNC(=O)CNC(=O)[C@H](C)NC(=O)CNC(=O)[C@H](C)NC(=O)[C@H](C)NC(=O)CNC(=O)CNC(=O)[C@H](CSSC[C@H](NC3=O)C(=O)N[C@@H](CN)C(=O)N[C@@H](Cc3cnc[nH]3)C(=O)N3CCC[C@H]3C(=O)N[C@@H](C)C(=O)N2)NC1=O` (HELM PEPTIDE1{A.A.G.A.G.G.C.C.[NC[C@H](N[*:1])C(=O)[*:2]].H.P.A.C.S.V.N.N.P.D.I.C.G.G}$PEPTIDE1,PEPTIDE1,7:R3-13:R3|PEPTIDE1,PEPTIDE1,8:R3-21:R3|PEPTIDE1,PEPTIDE1,1:R1-23:R2$$$V2.0), the remaining at 24 h in data set [1] came to 61.7%. For the same molecule, the inhibition in data set [2] (filed as antagonist) is greater than 85%.
For `CC[C@H](C)[C@@H]1NC(=O)[C@H](CC(=O)O)NC(=O)[C@@H]2CCCN2C(=O)[C@H](CC(N)=O)NC(=O)[C@H](CC(N)=O)NC(=O)[C@H](C(C)C)NC(=O)[C@H](CO)NC(=O)[C@@H]2CSSC[C@H](NC(=O)CN)C(=O)N[C@@H](CNC(=O)C[C@@H](C(N)=O)NC1=O)C(=O)N[C@@H](CN)C(=O)N[C@@H](Cc1cnc[nH]1)C(=O)N1CCC[C@H]1C(=O)N[C@@H](C)C(=O)N2` (HELM PEPTIDE1{G.C.[O=C([C@H](CN[*:3])N[*:1])[*:2]].[NC[C@H](N[*:1])C(=O)[*:2]].H.P.A.C.S.V.N.N.P.D.I.D.[am]}$PEPTIDE1,PEPTIDE1,2:R3-8:R3|PEPTIDE1,PEPTIDE1,3:R3-16:R3$$$V2.0), the remaining at 24 h in data set [1] turned out to be 57.3%. Moreover, the inhibition in data set [2] is less than 5%.
In the case of `CC[C@H](C)[C@@H]1NC(=O)[C@H](CC(=O)O)NC(=O)[C@@H]2CCCN2C(=O)[C@H](CC(N)=O)NC(=O)[C@H](CC(N)=O)NC(=O)[C@H](C(C)C)NC(=O)[C@H](CO)NC(=O)[C@@H]2CSSC[C@@H]3NC(=O)CNC(=O)CNC(=O)[C@H](C)NC(=O)[C@H](C)NC(=O)CNC(=O)[C@H](CSSC[C@H](NC3=O)C(=O)N[C@@H](CN)C(=O)N[C@@H](Cc3cnc[nH]3)C(=O)N3CCC[C@H]3C(=O)N[C@@H](C)C(=O)N2)NC1=O` (HELM PEPTIDE1{A.A.G.G.C.C.[NC[C@H](N[*:1])C(=O)[*:2]].H.P.A.C.S.V.N.N.P.D.I.C.G}$PEPTIDE1,PEPTIDE1,5:R3-11:R3|PEPTIDE1,PEPTIDE1,6:R3-19:R3|PEPTIDE1,PEPTIDE1,1:R1-20:R2$$$V2.0), in data set [1], the remaining at 24 h is less than 40%. Further, the inhibition in data set [2] was less than 10%.
Regarding `CC[C@H](C)[C@@H]1NC(=O)[C@H](CC(=O)O)NC(=O)[C@@H]2CCCN2C(=O)[C@H](CC(N)=O)NC(=O)[C@H](CC(N)=O)NC(=O)[C@H](C(C)C)NC(=O)[C@H](CO)NC(=O)[C@@H]2CSSC[C@@H]3NC(=O)CNC(=O)[C@@H](N)CNC(=O)C[C@@H](C(N)=O)NC(=O)[C@H](CSSC[C@H](NC3=O)C(=O)N[C@@H](CN)C(=O)N[C@@H](Cc3cnc[nH]3)C(=O)N3CCC[C@H]3C(=O)N[C@@H](C)C(=O)N2)NC1=O` (HELM PEPTIDE1{[N[C@@H](CN[*:3])C(=O)[*:2]].G.C.C.[NC[C@H](N[*:1])C(=O)[*:2]].H.P.A.C.S.V.N.N.P.D.I.C.D.[am]}$PEPTIDE1,PEPTIDE1,1:R3-18:R3|PEPTIDE1,PEPTIDE1,3:R3-9:R3|PEPTIDE1,PEPTIDE1,4:R3-17:R3$$$V2.0), the remaining at 24 h in data set [1] turned out to be 57.3%. Also, the inhibition in data set [2] was less than 5%.
The like results for `CC[C@H](C)[C@@H]1NC(=O)[C@H](CC(=O)O)NC(=O)[C@@H]2CCCN2C(=O)[C@H](CC(N)=O)NC(=O)[C@H](CC(N)=O)NC(=O)[C@H](C(C)C)NC(=O)[C@H](CO)NC(=O)[C@@H]2CSSC[C@@H]3NC(=O)CNC(=O)CNC(=O)[C@H](C)NC(=O)[C@H](C)NC(=O)CNC(=O)CNC(=O)[C@H](CSSC[C@H](NC3=O)C(=O)N[C@@H](CN)C(=O)N[C@@H](Cc3cnc[nH]3)C(=O)N3CCC[C@H]3C(=O)N[C@@H](C)C(=O)N2)NC1=O` (HELM PEPTIDE1{A.A.G.G.C.C.[NC[C@H](N[*:1])C(=O)[*:2]].H.P.A.C.S.V.N.N.P.D.I.C.G.G}$PEPTIDE1,PEPTIDE1,5:R3-11:R3|PEPTIDE1,PEPTIDE1,6:R3-19:R3|PEPTIDE1,PEPTIDE1,1:R1-21:R2$$$V2.0) were, in that order, less than 40% and 20%.
For the molecule `CC[C@H](C)[C@@H]1NC(=O)[C@H](CC(=O)O)NC(=O)[C@@H]2CCCN2C(=O)[C@H](CC(N)=O)NC(=O)[C@H](CC(N)=O)NC(=O)[C@H](C(C)C)NC(=O)[C@H](CO)NC(=O)[C@@H]2CSCSC[C@H](NC(=O)CN)C(=O)N[C@@H](CSSC[C@@H](C(N)=O)NC1=O)C(=O)N[C@@H](CN)C(=O)N[C@@H](Cc1cnc[nH]1)C(=O)N1CCC[C@H]1C(=O)N[C@@H](C)C(=O)N2` (HELM PEPTIDE1{G.C.C.[NC[C@H](N[*:1])C(=O)[*:2]].H.P.A.C.S.V.N.N.P.D.I.C.[am]}|CHEM1{[C([*:1])[*:2]]}$PEPTIDE1,CHEM1,2:R3-1:R1|PEPTIDE1,CHEM1,8:R3-1:R2|PEPTIDE1,PEPTIDE1,3:R3-16:R3$$$V2.0), the outcome in data set [3] was Active.
The same measure, in the same setting: with `CC[C@H](C)[C@@H]1NC(=O)[C@H](CC(=O)O)NC(=O)[C@@H]2CCCN2C(=O)[C@H](CC(N)=O)NC(=O)[C@H](CC(N)=O)NC(=O)[C@H](C(C)C)NC(=O)[C@H](CO)NC(=O)[C@@H]2CSCSC[C@H](NC(=O)CN)C(=O)N[C@@H](CSCSC[C@@H](C(N)=O)NC1=O)C(=O)N[C@@H](CN)C(=O)N[C@@H](Cc1cnc[nH]1)C(=O)N1CCC[C@H]1C(=O)N[C@@H](C)C(=O)N2` (H-GCC[Dap]HPACSVNNPDIC-NH2; linker 2-8, 3-16 via CH2) the entry was “Active”.

The record behind these values is ChEMBL document CHEMBL6074659, “Development of an Intravenously Stable Disulfide-Rich Peptide for the Treatment of Chemotherapy-Induced Neuropathic Pain” (J Med Chem, 2024).
